In brackets after ≈: the same amount, converted by molar mass. Read-outs that look alike come from different tables or passages of the source.
Experiments:
M. avium = experiment: Radiometric MIC (Example 19); format: cell-based
[1] = test system: Staphylococcus aureus ATCC 25923; experiment: MIC, macrodilution (Example 17); format: cell-based; details: ATCC25923
[2] = Reaction with N-acetyl-L-cysteine, HPLC (Example 26); format: physicochemical; details: 7 days
Procedure: Formation of N-acetyl-L-cysteine conjugates of licochalcone A. A solution of 1.5 mg of licochalcone A and 100 mg of N-acetyl-L-cysteine in acetonitrile0.13 M aqueous potassium phosphate buffer solution pH 7.5 (1:3) was left for 7 days at ambient temperature protected from light.

Helicobacter pylori = experiment: MIC on Helicobacter pylori, microaerophilic (Example 18); format: cell-based
Procedure: Bacteria. 16 recent clinical isolates of Helicobacter pylori from patients with duodenal ulcer or chronic gastritis. […] Staphylococcus aureus ATCC 25923 was used as control strain. The Helicobacter pylori strains were subcultured on chocolate agar plates with cysteine in a microaerophilic atmosphere at 37° C. for 72 hours and kept frozen at −80° C. until assayed. MIC determinations. Macrodilution rows were made with Helicomedia with 2 ml in all vials. […] All dilution rows were inoculated to give a final concentration of 10^5 CFU/ml. The MIC rows were incubated under microaerophilic conditions for […]. […] The control strain Staphylococcus aureus was incubated both aerobically and microaerophilically at 37° C. for 24 hours. All plates were read by the Karber method.

[3] = Serum concentration in rabbits after intravenous administration (Example 20); format: in vivo; details: rabbit
Procedure: Number of rabbits: 1 rabbit for each group
Dose: 20 mg per kg body weight
Route: Intravenously, administered once
Samples: Samples were drawn from each rabbit twice.
Serum or plasma was diluted with one part of acetonitrile, left for 15 min at 4° C., and centrifugated for 3 min at 10,000 g. An aliquot of the supernatant was chromatographed at 37° C. by HPLC over Spherisorb ODS-2 (5 μm, 120×4.5 mm, Phase Separation LTD, UK) using acetonitrile aqueous acetic acid, 2%, (1:1) as an eluent, flow rate 1.5 ml/min, and UV detection (370 nm and 254 nm).

L. pneumophilia = experiment: microbe, parasite or virus in culture; format: cell-based; details: Legionella pneumophila
[4] = test system: L. donovani promastigotes; experiment: In vitro growth of L. donovani promastigotes, 3H-thymidine uptake (Example 4); format: cell-based; details: Leishmania donovani; for inhibition at 1 µg/mL: 1 μg/ml; for inhibition at 2 µg/mL: 2 μg/ml; for inhibition at 5 µg/mL: 5 μg/ml; for inhibition at 10 µg/mL: 10 μg/ml; for inhibition at 20 µg/mL: 20 μg/ml
[5] = Toxicity study in mice, i.v. and oral (Example 21); format: in vivo, NMRI female mice
Procedure: Drug. Licochalcone A solution was prepared as follows: 20 mg of licochalcone A was dissolved in 0.2 ml of ethanol. 60 mg of melted polyoxyethylene (23)lauryletherb (Brij 35) was added. 1.7 ml of phosphate buffer was then added while stirring on a warm plate. pH in the licochalcone A solution was adjusted to 7.3.
Mice. NMRI female mice (30-35 gram) in groups of 4 each were used for these studies. For the oral route experiment, the animals were fasted for 16 hrs with access to drinking water. Licochalcone A was suspended in 2% carboxymethylcellulose in water. This suspension was available for the mice in an amount of 0.1 ml per 10 gram body weight. The animals were observed every day for 7 days. For the intravenous injection experiment the animals were not fasted. Licochalcone A in solution (20 mg/ml) prepared as mentioned above was injected intravenously 0.1 ml per 10 gram body weight over a period of one hour and again 24 hrs later.

L. major promastigotes = L. major promastigotes from 4-days cultures, 3H-thymidine uptake (Examples 5, 14); format: cell-based, Leishmania major; details: Leishmania major, Table 14.1, read-out: percentage inhibition of promastigotes (upper figure)
Outline: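 Promastigotes harvested on day 4 of culture were exposed to compound, then pulsed with 100 μC 3H-thymidine for a further 18 h. Cells were collected on filter paper, washed, and incorporated radioactivity counted by scintillation.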

[6] = Toxicity study in rats, peroral (Example 21); format: in vivo
Procedure: Study in rats. To 4 rats was administered one dose of 1000 mg per kg body weight perorally.

Gram positive cocci = experiment: MIC, macrodilution (Example 17), text summary; format: cell-based
M. bovis = format: cell-based; details: n = 8
[7] = Helicobacter pylori, 16 clinical isolates
[8] = read-out: percentage inhibition of 3H-thymidine uptake (mean ± SEM), 3-day culture
[9] = read-out: percentage inhibition of 3H-thymidine uptake (mean ± SEM), 6-day culture

SMILES: C=CC(C)(C)c1cc(/C=C/C(=O)c2ccc(O)cc2)c(OC)cc1O [Licochalcone A, licochalcone A]
- meanMIC (M. avium; AIDS patients, n=4): > 80 µg/mL
- MIC (M. avium; Mycobacterium avium, read-out: MIC, all M. avium/intracellular strains): ≥ 20 µg/mL
- meanMIC (M. avium; non AIDS patients, n=7): > 80 µg/mL
- MIC [1]: 18 µg/mL (≈ 53.2 µM)
- stability in buffer without N-acetyl-L-cysteine [2]: No similar decrease
- reaction with N-acetyl-L-cysteine ([2]; acetonitrile-phosphate buffer pH 7.5 (1:3), ambient temperature): decreased amounts of licochalcone A and appearance of two new peaks
- MIC Range (Helicobacter pylori; 16 clinical isolates): 16 to 125 µg/mL
- MIC50 (Helicobacter pylori; [7]): 62 µg/mL (≈ 183 µM)
- MIC90 (Helicobacter pylori; [7]): 125 µg/mL (≈ 369 µM)
- MIC (Helicobacter pylori; Helicobacter pylori, read-out: MIC of the only strain with a low MIC): 16 µg/mL
- concentration at 24 h ([3]; 24 hours after intravenous 20 mg per kg, detection limit): < 50 ng/mL
- concentration at 1 h ([3]; one hour following intravenous 20 mg per kg): 350 ng/mL
- MIC (L. pneumophilia; L. pneumophilia serogr. 1, 4 strains): 1 to 4 µg/mL (≈ 2.96 to 11.8 µM)
- MIC (L. pneumophilia; L. pneumophilia serogr. 2-7, 6 strains): 2 to 4 µg/mL (≈ 5.91 to 11.8 µM)
- MIC (L. pneumophilia; read-out: MIC-values, clinical isolates): 1 to 4 µg/mL (≈ 2.96 to 11.8 µM)
- inhibition at 1 µg/mL [4, 8]: 15.2 ± 14.5%
- inhibition at 2 µg/mL [4, 8]: 23.5 ± 16.4%
- inhibition at 5 µg/mL [4, 8]: 53.7 ± 14%
- inhibition at 10 µg/mL [4, 8]: 81.5 ± 8%
- inhibition at 20 µg/mL [4, 8]: 96.7 ± 0.8%
- inhibition at 1 µg/mL [4, 9]: 30.4 ± 23.8%
- inhibition at 2 µg/mL [4, 9]: 42.2 ± 16.6%
- inhibition at 5 µg/mL [4, 9]: 70.1 ± 12.4%
- inhibition at 10 µg/mL [4, 9]: 91.9 ± 3.1%
- inhibition at 20 µg/mL [4, 9]: 98.3 ± 0.8%
- No. dead (after 7 days) ([5]; 1000 mg/kg perorally, groups of 4): 0 (after 7 days)
- No. dead (after 1 hr) ([5]; i.v. 20 mg/kg, groups of 4): 0
- No. dead (after 1 hr) ([5]; i.v. 50 mg/kg, groups of 4): 1
- No. dead (after 1 hr) ([5]; i.v. 60 mg/kg, groups of 4): 4
- No. dead (after 1 hr) ([5]; i.v. 100 mg/kg, groups of 4): 4
- Approximate LD50 i.v. ([5]; mice): ~55 mg per kg body weight
- inhibition at 0.5 µg/mL (L. major promastigotes; 0.5 μg/ml): 12%
- inhibition at 1 µg/mL (L. major promastigotes; 1 μg/ml): 25%
- inhibition at 5 µg/mL (L. major promastigotes; 5 μg/ml): 64%
- inhibition at 10 µg/mL (L. major promastigotes; 10 μg/ml): 92%
- deaths within one week ([6]; 4 rats, one dose of 1000 mg per kg perorally): None of the animals died
- LD50 peroral ([6]; rats): > 1000 mg per kg
- MIC (Gram positive cocci): 4000 to 8000 µg/mL (≈ 11800 to 23600 µM)
- meanMIC (M. bovis): meanMIC = 15.7 μg/ml
- rangeMIC (M. bovis): rangeMIC = 10-20 μg/ml (n = 8)

From patent US6603046B1, “Bis-aromatic a,β-unsaturated ketones” (Lica Pharmaceuticals A/S, priority 1992, dated 2003)
